# Data published in US6534503B1, “Melanocortin receptor-3 ligands to treat sexual dysfunction” (Lion Bioscience AG, priority 1998, dated 2003).
# How the values were obtained:
# MC-3 = target: T1, MC-3 (Homo sapiens, UniProt P41968); experiment: cAMP assay for melanocortin receptors, HEK 293 cells expressing MC-3; assay type: cell-based; conditions: for Emax: HEK293, percentage of stimulation obtained by adding HP-228 at 0.8 μM, read-out: % of HP-228 (MC-3 stimulatory effect); for EC50: concentration for 50% of the maximum increase by that ligand
# T1 construct: expressed in transfected cells; host or cells: HEK 293
# T1 sequence (P41968 whole entry): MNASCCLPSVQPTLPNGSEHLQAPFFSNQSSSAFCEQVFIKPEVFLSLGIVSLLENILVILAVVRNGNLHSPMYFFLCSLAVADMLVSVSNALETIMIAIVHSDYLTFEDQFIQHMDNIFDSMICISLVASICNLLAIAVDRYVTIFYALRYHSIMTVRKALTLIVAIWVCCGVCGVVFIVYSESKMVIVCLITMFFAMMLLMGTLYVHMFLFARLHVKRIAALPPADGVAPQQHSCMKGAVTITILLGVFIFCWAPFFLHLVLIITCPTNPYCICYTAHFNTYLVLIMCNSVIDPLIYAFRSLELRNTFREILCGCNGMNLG
# Source text: (§1) All cell culture media and reagents were obtained from GibcoBRL (Gaithersburg Md.), except for COSMIC CALF SERUM (HyClone; Logan Utah). HEK 293 cell lines were transfected with human MC receptors hMCR-1, hMCR-3 and hMCR-4 (Gantz et al., Biochem. Biophys. Res. Comm. 200:1214-1220 (1994); Gantz et al., J. Biol. Chem. 268:8246-8250 (1993); Gantz et al. J. Biol. Chem. 268:15174-15179 (1993); Haskell-Leuvano et al., Biochem. Biophys. Res. Comm. 204:1137-1142 (1994)). Vectors for constructing an hMCR-5-expressing cell line were obtained and a line of HEK 293 cells expressing hMCR-5 was constructed (Gantz, supra, 1994). Receptor hMCR-5 has been described previously (Franberg et al., Biochem. Biophys. Res. Commun. 236:489-492 (1997); Chowdhary et al., Cytogenet. Cell Genet. 68:1-2 (1995); Chowdhary et al., Cytogenet. Cell Genet. 68:79-81 (1995)). HEK 293 cells were maintained in DMEM, 25 mM HEPES, 2 mM glutamine, non-essential amino acids, vitamins, sodium pyruvate, 10% COSMIC CALF SERUM, 100 units/ml penicillin, 100 μg/ml streptomycin and 0.2 mg/ml G418 to maintain selection.
# (§2) This example describes methods for assaying cAMP production from G-protein-coupled MC receptors.
# (§3) HEK 293 cells individually expressing MCR-1, CR-3, MCR-4 or MCR-5 were used. Cells were plated at 20,000 cells per well in a 96-well plate coated with collagen (Beckton Dickinson; Bridgeport N.J.). The next day, cells were pretreated with 88 μl of 0.4 mM 3-isobutyl-1-methylxanthine (IBMX) in low serum medium containing DMEM, 25 mM HEPES and 0.1% COSMIC CALF SERUM. IBMX is an inhibitor of cAMP phosphodiesterase. The pretreatment was carried out for 10 minutes at 37° C.
# (§4) Following pretreatment, 12.5 μl of diluted compound was added to the wells and cells were incubated for 15 min at 37° C. Cells were lysed by adding 25 μl saponin lysis buffer (130 mM KCl, 1 mM KH2PO4, 2.5 mM MgSO4, 15 mM sucrose, 20 mM HEPES, 2% BSA, 0.8% saponin) and incubating 2 to 5 minutes. Plates were covered and stored at −20° C.
# (§5) The cAMP concentration was determined by ELISA. Briefly, 96 well ELISA plates were coated with goat anti-cAMP antibody in PBS for 12 to 72 hr at 4° C. 50 μl of sample was mixed with 50 μl of cAMP ELISA buffer containing 1% bovine serum albumin, 10% heat inactivated donor horse serum, 1% normal mouse serum and 0.05% TWEEN-20 in PBS, and the diluted sample was added to the coated ELISA plate. Standards of known concentrations of cAMP were added to separate wells. Then, cAMP-conjugated horseradish peroxidase (cAMP-HRP) was added to each well at 25 μl of 16 ng/ml. The plates were incubated for 3 hr at room temperature. Plates were washed and the binding of cAMP-HRP was detected with 3,3′,5,5′-tetramethylbenzidine (TMB) and hydrogen peroxide using standard immunoassay procedures.
# (§6) Various compounds were tested for in vitro activity and binding to melanocortin receptors. MC-3 stimulatory effect is also described in terms of percentage of stimulation obtained by adding HP-228 at 0.8 μM. The EC50 values are the concentration of ligand necessary to achieve 50% of the maximum increase by that ligand in an assay. The IC50 values are the concentration giving 50% inhibition of binding of ^125I-HP 467.
# MC-1 = target: T2, MC-1 (Homo sapiens, UniProt Q01726); experiment: cAMP assay for melanocortin receptors, HEK 293 cells expressing MC-1; assay type: cell-based; conditions: concentration for 50% of the maximum increase by that ligand
# T2 construct: expressed in transfected cells; host or cells: HEK 293
# T2 sequence (Q01726 whole entry): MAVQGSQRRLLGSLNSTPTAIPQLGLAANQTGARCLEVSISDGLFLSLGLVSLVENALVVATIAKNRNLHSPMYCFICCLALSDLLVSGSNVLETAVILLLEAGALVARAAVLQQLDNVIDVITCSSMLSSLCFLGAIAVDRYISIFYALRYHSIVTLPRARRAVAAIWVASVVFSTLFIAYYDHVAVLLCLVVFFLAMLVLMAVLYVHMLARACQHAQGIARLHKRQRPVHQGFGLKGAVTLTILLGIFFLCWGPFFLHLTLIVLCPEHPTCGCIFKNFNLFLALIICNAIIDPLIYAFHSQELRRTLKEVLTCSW
# Source text: as §1, §2, §3, §4
# as §5, with “procedures. […]” for “procedures.”
# MC-4 = target: T3, MC-4 (Homo sapiens, UniProt P32245); experiment: cAMP assay for melanocortin receptors, HEK 293 cells expressing MC-4; assay type: cell-based; conditions: concentration for 50% of the maximum increase by that ligand
# T3 construct: expressed in transfected cells; host or cells: HEK 293
# T3 sequence (P32245 whole entry): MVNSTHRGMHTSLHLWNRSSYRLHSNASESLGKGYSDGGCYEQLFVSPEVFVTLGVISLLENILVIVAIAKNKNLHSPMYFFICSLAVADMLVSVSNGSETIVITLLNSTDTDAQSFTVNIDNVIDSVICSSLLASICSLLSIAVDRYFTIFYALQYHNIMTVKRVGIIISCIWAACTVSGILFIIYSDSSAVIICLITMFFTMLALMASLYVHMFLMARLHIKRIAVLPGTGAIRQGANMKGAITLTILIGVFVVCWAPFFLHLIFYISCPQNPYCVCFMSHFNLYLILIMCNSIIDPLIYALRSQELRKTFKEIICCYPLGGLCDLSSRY
# Source text: as §1, §2, §3, §4, §5, §6
# male Sprague-Dawley rats [1] = experiment: Effect of oxytocin receptor antagonist vasotocin on erectile effects in rats; assay type: in vivo; conditions: rat
# Source text: (§7) In both examples, male Sprague-Dawley rats, about 200 to 225 g, were acclimated for 5 days in a reverse light:dark cycle room (dark 10 a.m. to 10 p.m.) before being aseptically ICV cannulated. Rats with indwelling ICV cannulae were housed one per cage. After surgery, 4 days were allowed for recovery and 10 days total were allowed for adaptation to the light cycle. Rats were caged individually after surgery and body weights at the time of treatment averaged 250 g. Otherwise, the procedure is essentially the same as in Example II.
# Treatment was between 10 a.m. and 1 p.m. […] Vasotocin (Peninsula Laboratories, San Carlos Calif.) was administered ICV at 100 ng/rat. Oxytocin (Sigma, St. Louis Mo.) was administered ICV at 30 ng/rat (10 μl/rat PBS). Ten minutes later, IP injections of HP-228 or vehicle were given. HP-228 was administered IP at 2 mg/kg in 3 ml/kg PBS. One group of animals received ICV injections of vasotocin and oxytocin ICV injections of 5 μl/rat each at double concentrations for a total of 10 μl injected ICV. In this group, the rats received vasotocin first, followed by oxytocin.
# male Sprague-Dawley rats [2] = experiment: Effect of dopamine receptor antagonist sulpiride on erectile effects in rats; assay type: in vivo; conditions: rat
# Source text: as §7
# Treatment was between 9:30 a.m. and noon. Each animal received an initial IP injection of vehicle (3 ml/kg PBS) or sulpiride. Sulpiride (Sigma) was administered IP at 50 mg/kg (6 ml/kg IP). Ten minutes later, the animals received a final IP injection of HP-228 or vehicle or a SC injection of apomorphine. HP-228 was administered IP at 2 mg/kg in 3 ml/kg PBS. Apomorphine (Sigma) was administered SC at 0.1 mg/kg (1 ml/kg sterile water).
# [3] = single agent plus PBS: oxytocin 30 ng/rat ICV, HP-228 2 mg/kg IP, vasotocin 100 ng/rat ICV
# [4] = single agent plus PBS: apomorphine 0.1 mg/kg SC, HP-228 2 mg/kg IP, sulpiride 50 mg/kg IP
# [5] = sulpiride 50 mg/kg IP followed by HP-228 2 mg/kg IP
# [6] = sulpiride 50 mg/kg IP followed by apomorphine 0.1 mg/kg SC
# [7] = vasotocin 100 ng/rat ICV followed by HP-228 2 mg/kg IP
# [8] = vasotocin ICV followed by oxytocin ICV
Compound,Emax (MC-3) [%],EC50 (MC-3) [µM],EC50 (MC-1) [µM],EC50 (MC-4) [µM],also measured
CC(C)(C)c1ccc(-c2nc3cc(C(=O)N(CCc4ccccc4)Cc4ccccc4)ccc3n2C(CCCNC(=N)N)C(N)=O)cc1 (centres unmarked) [Compound A],89,7.65,0.47,–,–
CCCCOc1ccc(-c2nc3cc(C(=O)NC(Cc4ccccc4)c4ccccc4)ccc3n2C(CCCNC(=N)N)C(N)=O)cc1 (centres unmarked) [Compound B],115,1.33,–,12,–
CC(C)c1ccc(-c2nc3cc(C(=O)NC(Cc4ccccc4)c4ccccc4)ccc3n2C(CCCNC(=N)N)C(N)=O)cc1 (centres unmarked) [Compound C],92,1.4,–,10.6,–
CC(C)c1ccc(-c2nc3cc(C(=O)N(CCc4ccccc4)Cc4ccccc4)ccc3n2C(CCCNC(=N)N)C(N)=O)cc1 (centres unmarked) [Compound D],140,1.7,–,2.8,–
CC(C)(C)c1ccc(-c2nc3cc(C(=O)NC(Cc4ccccc4)c4ccccc4)ccc3n2C(CCCNC(=N)N)C(N)=O)cc1 (centres unmarked) [Compound E],59,6.7,0.43,19.9,–
CC(C)(C)c1ccc(-c2nc3cc(C(=O)N4CC=C(c5ccc(Cl)cc5)CC4)ccc3n2[C@@H](CCCNC(=N)N)C(N)=O)cc1 [Compound K],91,1.75,0.38,0.08,–
CC(C)(C)c1ccc(-c2nc3cc(C(=O)N(CCc4ccccc4)Cc4cccnc4)ccc3n2[C@@H](CCCNC(=N)N)C(N)=O)cc1 [Compound L],350,4.69,0.22,6.35,–
CCCCOc1ccc(-c2nc3cc(C(=O)N(CCc4ccccc4)Cc4cccnc4)ccc3n2[C@@H](CCCNC(=N)N)C(N)=O)cc1 [Compound M],89,3.67,–,–,–
CCCCCc1ccc(-c2nc3cc(C(=O)N(CCc4ccccc4)Cc4ccccc4)ccc3n2[C@@H](CCCNC(=N)N)C(N)=O)cc1 [Compound N],229,2.32,–,5.9,–
CC[C@H](C)[C@@H]1NC(=O)[C@H](Cc2ccc(O)cc2)NC(=O)[C@@H](N)CSSC[C@@H](C(=O)N2CCC[C@H]2C(=O)N[C@@H](CC(C)C)C(=O)NCC(N)=O)NC(=O)[C@H](CC(N)=O)NC(=O)[C@H](CCC(N)=O)NC1=O [Oxytocin],–,–,–,–,"response rate, % of animals (male Sprague-Dawley rats [1]; oxytocin and HP-228 groups): 88%-100%; erections per hour (male Sprague-Dawley rats [1]; [3]): 3.9 erections per hour; responder rate of animals (rats responding out of rats) (male Sprague-Dawley rats [1]; [3]): 7/8"
CN1CCc2cccc3c2[C@H]1Cc1ccc(O)c(O)c1-3 [apomorphine],–,–,–,–,"response rate, % of animals (male Sprague-Dawley rats [2]; apomorphine and HP-228 groups): 100%; erections per hour (male Sprague-Dawley rats [2]; [4]): 4.0 erections per hour; rate of animals responding (male Sprague-Dawley rats [2]; [4]): 6/6"
CCN1CCCC1CNC(=O)c1cc(S(N)(=O)=O)ccc1OC (centres unmarked) [sulpiride],–,–,–,–,erections per hour (male Sprague-Dawley rats [2]; [4]): 0.0 erections per hour; rate of animals responding (male Sprague-Dawley rats [2]; [4]): 0/2; erections per hour (male Sprague-Dawley rats [2]; [5]): 6.7 erections per hour; rate of animals responding (male Sprague-Dawley rats [2]; [5]): 4/4; erections per hour (male Sprague-Dawley rats [2]; [6]): 1.5 erections per hour; rate of animals responding (male Sprague-Dawley rats [2]; [6]): 3/4
d(CH2)5-Tyr(Me^2)-Orn^8-Vasotocin,–,–,–,–,erections per hour (male Sprague-Dawley rats [1]; [3]): 0.2 erections per hour; responder rate of animals (rats responding out of rats) (male Sprague-Dawley rats [1]; [3]): 2/8; erections per hour (male Sprague-Dawley rats [1]; [7]): 5.6 erections per hour; responder rate of animals (rats responding out of rats) (male Sprague-Dawley rats [1]; [7]): 8/8; erections per hour (male Sprague-Dawley rats [1]; [8]): 1.0 erections per hour; responder rate of animals (rats responding out of rats) (male Sprague-Dawley rats [1]; [8]): 4/8
